Literature values, collected in patent US20250134912A1 (Theaprin Pharmaceuticals, Inc., priority 2021, published 2025).

Legend:
[1] = system: critically ill children with suspected zinc deficiency; settings: in vivo, iv, 0.75 mg/kg/day
[2] = system: hospitalized patients with COVID-19; settings: aspirin used was not an aspirin/theanine cocrystal
patients with COVID-19 = settings: 31 patients with COVID-19, in comparison to the controlled patients
SARS-COV-2 = settings: SARS-COV-2, in vitro
[3] = at 25° C.

## [Zn] [Elemental zinc]
[1]
  adverse effects: without producing any adverse effects

## CC(=O)Oc1ccccc1C(=O)O [aspirin, acetylsalicylic acid]
[2]
  mechanical ventilation, ICU admission, and in-hospital mortality: decrease

## OCCN(CCO)c1nc(N2CCCCC2)c2nc(N(CCO)CCO)nc(N3CCCCC3)c2n1 [dipyridamole, 2,6 bis-(diethanolamino)-4,8 dipiperidino-pyrimido-(5,4-d)pyrimidine]
Patients with COVID-19
  clinical outcomes: markedly improved
  lymphocyte and plasma platelet recovery: increased
Patients with COVID-19; P>0.05
  D-Dimer: significantly decreased
SARS-COV-2
  viral replication in vitro: suppressed

## [Cl-].[Cl-].[Zn+2] [zinc chloride, Zinc chloride]
[3]
  water solubility: 432 g/100 ml water
